Reference: patent publication US20190201494A1, “COMPOSITIONS AND METHODS FOR TREATING NICOTINE WITHDRAWAL” (STC UNM, priority 2016, published 2019)
Entries after “also recorded” stand apart in the source; their conditions may differ.

Test system: smokers, 36 hours of smoking abstinence
Experiment: Replication crossover study: Questionnaire on Smoking Urges-Brief on Day 2 of 36 hours smoking abstinence (Example 2)
Assay type: in vivo, human
Description: Results from Day 2 are presented. The main differences between Example 1 and Example 2 are: (1) parallel vs crossover design, and (2) placebo content: the parallel design placebo was normal saline, the crossover design was 8.7% NaCl. The purpose of increasing the placebo salt content in the crossover study was to maintain the blind.
Study participants began their first night of smoking abstinence at 20:00 prior to reporting to the inpatient unit of University of New Mexico Clinical and Translational Science Center at 11:30 the following day. During Day 1 at the hospital, participants provided a CO sample, which had to be 50% of their measurement at screening or less than 7 ppm and a negative breath alcohol test (0.00%). Additional criteria for session continuation included negative urine drug test and vitals within normal limits as described in the “Participants” section above. The study nurse evaluated the nares for abnormalities and checked POC glucose to ensure subjects were within normal limits prior to receiving spray.
During Day 1, participants were administered spray at 12:40, ate lunch at 13:00 and completed appetite ratings and a snacking test. Participants ate dinner at 19:00 and lights were turned off at 21:00.
The following morning, participants completed Questionnaire of Smoking Urges at 7:50. Prior to this first questionnaire administration, participants provided a urine sample, which had to be negative for illicit substances, and a CO sample, which had to be either 50% lower than the value on day 1, or less than 7 ppm. An intravenous line was established at 6:45 and a baseline blood sample was drawn. Study nurse checked POC glucose and completed a nares evaluation to confirm participant was within normal limits to receive spray. Spray administration occurred at 8:00, followed by breakfast at 8:20. Post-spray Questionnaire of Smoking Urges was completed at 8:15, 8:45, 9:15, 9:45, 10:30 and 11:30. During this time blood samples were taken for additional analyses. At noon, study nurse evaluated the nares to rule out abnormality and checked POC glucose to ensure that results were within normal limits. The two sessions were separated by one week.
Urges to smoke were rated using the 10-item Questionnaire on Smoking Urges-Brief (Cox et al., 2001. Nicotine Tob Res 3(1):7-16) that consists of 10-questions. The answers are scored from 1 (strongly disagree) to 7 (strongly agree). These questions are the bases for the two factor derived subscales. Factor 1 subscale reflects a strong desire and intention to smoke with smoking perceived as rewarding. Factor 2 subscale reflects an anticipation of relief from negative affect with an urgent desire to smoke. These two subscales were sub-analyses stemming from our main (overall) QSU-Brief analysis. Cravings were measured at −15, 0, +20, +60, +70, +80, +90 and +120 minutes from spray administration on Day 2.
Placebo contained 8.7% NaCl. Per FDA approved protocol, the product was prepared in a biosafety cabinet of UNM Translational Radiopharmacy. Drug Preparation occurred 30 minutes before administration. […] or placebo was placed in a 10 mL amber glass bottle (Gerresheimer AG, Düsseldorf, Germany), which was capped with a 10 mg sterile nasal pump (Aero Pump GmbH, Hochheim, Germany). Assembled product was primed per manufacturer's recommendations before 0.6 ml volume was administered to study participants. In a randomized fashion, study nurse administered one spray in each nostril every three minutes for the total of six sprays of either insulin or placebo. As each spray delivers 0.1 ml of fluid, and the concentration of insulin in Novolin R is 100 IU/mL, administering six sprays delivers 60 IU of insulin.
Random coefficient models were constructed for analyzing study outcomes. Treatment, time, treatment by time interaction, and sequence were included as fixed effects. Time nested within subjects, and time nested within treatment nested within subjects were included as random effects. […]

intranasal insulin: bulk human Regular insulin (U100 Novolin R, Novo Nordisk US), 100 IU/ml, six nasal sprays delivering 60 IU
Smoking urges (Questionnaire of Smoking Urges) compared to placebo, replication study (60 IU intranasal, crossover, morning of Day 2, 36 hours abstinence, p≤0.05): decreased significantly; also recorded: This finding was replicated | QSU-Brief Factor 2 compared to placebo, replication study (60 IU, crossover, Day 2, p=0.18): no effect; also recorded: not Factor 2 scale | QSU-Brief Factor 1 compared to placebo, replication study (60 IU, crossover, Day 2, p≤0.05): significantly decreased; also recorded: the effect was driven by intranasal insulin's effect on Factor 1 | QSU-Brief Factor 2, effect of treatment, b, replication study (SE(b)=0.87, z=1.34, p=0.18): 1.16 | QSU-Brief Factor 1, effect of treatment, b, replication study (SE(b)=1.15, z=2.16, p≤0.05): 2.49 | Smoking urges, effect of treatment, b, replication study (SE(b)=1.91, z=1.92, p≤0.05): 3.67
